Test results published in US9943501B2 (KOJUN JAPAN CO., LTD., priority 2014, dated 2018).
Entries after “also recorded” stand apart in the source; their conditions may differ.

Columns and labels:
[1] = target: T1, human-derived PPARγ ligand-binding domain (Homo sapiens, UniProt P37231); assay: PPARγ activation test (GAL4 chimera / luciferase reporter in CV-1 cells); type: cell-based; conditions: for PPARγ ligand activity, ratio (%) of the activity of each synthesized product to the activity of the control substance (DMSO): control = 100
T1 construct: expressed in transfected cells; host or cells: CV-1 cells (African green monkey kidney-derived)
T1 sequence (P37231 238-503 limits assumed): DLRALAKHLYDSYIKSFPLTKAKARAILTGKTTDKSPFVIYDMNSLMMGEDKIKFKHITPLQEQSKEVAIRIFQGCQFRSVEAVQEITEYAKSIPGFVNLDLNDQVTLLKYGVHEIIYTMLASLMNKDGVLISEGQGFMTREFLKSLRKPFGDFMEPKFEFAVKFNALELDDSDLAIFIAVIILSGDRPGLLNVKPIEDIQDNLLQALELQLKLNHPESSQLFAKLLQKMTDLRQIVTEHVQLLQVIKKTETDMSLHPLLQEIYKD
Protocol: A measurement method for the PPAR activation test in Examples below were conducted as described below.
(1) PPARγ Activation Test
A plasmid pM-PPARγ for the expression of a chimeric protein composed of a human-derived PPARγ ligand-binding domain and a DNA-binding domain of a yeast-derived GAL4 transcription factor, and a plasmid p4×UASg-tk-luc containing a Cypridina-derived luciferase structural gene linked downstream of a GAL4 responsive sequence designed such that its expression was controlled by this chimeric protein, were prepared. Also, a Renilla-derived luciferase expression plasmid pRL-CMV having a viral expression promoter for constitutive intracellular expression was prepared as a plasmid for the correction of transfection efficiency. On the other hand, DMEM containing 10% FBS was used as a medium for CV-1 cells (African green monkey kidney-derived). The CV-1 cells were seeded at 4.5×10^5 cells over a 100-mm Petri dish and cultured in an incubator at 37° C. in a 5% CO2 environment.
(1-2) Transformation of CV-1 Cell
The CV-1 cells thus cultured for 24 hours were cotransfected with 2.0 μg of pM-PPARγ, 4.0 μg of p4×UASg-tk-luc, and 0.04 μg of pRL-CMV to transform the CV-1 cells. The transformation was carried out by the liposome method using LipofectAMINE(R) Reagent (a product of Invitrogen Corp.). After the transformation operation, the cells were cultured at 37° C. for 3.5 hours in a 5% CO2 environment.
(1-3) Addition of Test Sample
The CV-1 cells thus incubated were recovered by trypsin treatment, and […] thereof was inoculated at a concentration of 1×10^5 cells/mL to a 96-well plate. Each test sample was diluted with DMEM containing 4% FBS to adjust its concentration to twice the final concentration, and […] thereof was added to the 96-well plate mentioned above. DMSO was used as a control substance. After the addition of the test sample or the control substance (DMSO), the mixture was incubated at 37° C. for 24 hours in a 5% CO2 environment.
(1-4) Measurement of Luciferase Activity
The luciferase activity was measured using Dual-Luciferase(R) Reporter Assay System (a product of Promega K.K.). The culture solution was removed from the 96-well plate. The cells were washed with PBS(−), and moisture was removed therefrom using a paper towel. To the cells, […] of a cell lysis solution (Passive Lysis Buffer) was added, and the 96-well plate was shaken for 15 minutes. The cell extract was transferred at […] to a 96-well luminoplate. A luminescent substrate solution was added thereto at […]. The luminescence intensity based on the luciferase was measured for a measurement time set to 10 seconds using a luminometer (Micro Lumat Plus, a product of Berthold Japan Co., Ltd.).
The PPARγ-activating effect of the test sample was evaluated on the basis of a ratio (%) relative to controls. In order to correct transfection efficiency, the measured Cypridina luciferase activity value (A) was divided by the measured Renilla luciferase activity value (B) to determine a value (A/B). The average A/B value of the control group was calculated and defined as 100. The A/B value of the test sample was calculated, and the ratio (%) of this value to the average value of the controls was used as the ability of the test sample to activate PPARγ.
Their PPARγ ligand activity was measured in the same way as in Example 7 except that the incubation time after the test sample addition was set to 48 hours. The values shown in the table below and the ordinate of the drawing depict the ratio (%) of the activity of each synthesized product to the activity of the control substance (DMSO). In Table 1 and FIG. 13, these various butenolide compounds used as test samples were each indicated by the functional group of R^2 in the formula (1).

[2] = system: UCP-1 gene; assay: Measurement of UCP-1 gene expression level in mesenchymal cell line 10T1/2; type: cell-based; conditions: 10T1/2 cells; 100 μg/mL; 24 hours; FIG. 11
From the text: Mitochondrial uncoupling proteins (or uncoupling proteins: UCPs) have the function of uncoupling oxidative phosphorylation reaction in the mitochondrial inner membrane to consume the energy as heat. Among them, UCP-1 is specifically expressed in brown fat cells that produce heat by burning fat. In recent years, particular synthetic PPARγ agonists have been reported to convert white fat cells working to store fat to brown fat cells working to burn fat (H. Ohno et al, Cell metabolism, 2012, Vol. 15, pp. 395-404).
The test was conducted as follows: a mesenchymal cell line 10T1/2 was inoculated at 1×10^4 cells/mL to a 12-well plate. The cells were cultured until confluent. Then, the fraction of peak 5 (5H4PB) was added thereto such that its final concentration was 100 μg/mL. DMSO was used as a control substance. Twenty-four hours after the sample addition, mRNA was recovered from the cells, and the mRNA level was determined. The mRNA quantification was carried out using LightCycler(R) (Roche Applied Science). The ordinate of the drawing depicts the ratio of the UCP-1 expression level for the fraction of peak 5 to the UCP-1 expression level for the control substance (DMSO). […] The increased expression level of UCP-1 indicates enhanced heat production from lipids.

[3] = system: liver (hepatocytes) of C57BL/6J mice fed with a high-fat diet; assay: Influence of administration on liver tissue (histopathological examination); type: in vivo, mouse; conditions: 12 weeks, high-fat diet
From the text: In Example 13, the liver was collected during the collection of fat tissues from each individual and histopathologically examined. The findings from the histopathological examination were as described below.
For the individuals of the normal group, the deposition of fat droplets was not observed in the hepatocytes, whereas only the very mild infiltration of inflammatory cells was observed.

[4] = test sample concentration 0.032 μg/mL, incubation 48 hours
[5] = test sample concentration 0.08 μg/mL, incubation 48 hours
[6] = test sample concentration 0.16 μg/mL, incubation 48 hours
[7] = test sample concentration 0.4 μg/mL, incubation 48 hours
[8] = test sample concentration 0.8 μg/mL, incubation 48 hours, * = twice or more vs control, p<0.05
[9] = test sample concentration 2 μg/mL, incubation 48 hours, * = twice or more vs control, p<0.05
[10] = test sample concentration 4 μg/mL, incubation 48 hours, * = twice or more vs control, p<0.05

| SMILES | PPARγ ligand activity of butenolide compounds (in words) ([1]; Example 8, incubation 48 hours, Table 1 and FIG. 13, listed as 5-hydroxy-4-(4-methylphenyl)butenolide) | PPARγ ligand activity, ratio (%) of the activity of each synthesized product to the activity of the control substance (DMSO) [1, 4] | PPARγ ligand activity, ratio (%) of the activity of each synthesized product to the activity of the control substance (DMSO) [1, 5] | PPARγ ligand activity, ratio (%) of the activity of each synthesized product to the activity of the control substance (DMSO) [1, 6] | PPARγ ligand activity, ratio (%) of the activity of each synthesized product to the activity of the control substance (DMSO) [1, 7] | PPARγ ligand activity, ratio (%) of the activity of each synthesized product to the activity of the control substance (DMSO) [1, 8] | PPARγ ligand activity, ratio (%) of the activity of each synthesized product to the activity of the control substance (DMSO) [1, 9] | PPARγ ligand activity, ratio (%) of the activity of each synthesized product to the activity of the control substance (DMSO) [1, 10] | expression level of UCP-1 (mRNA) relative to control substance (DMSO) [2] | PPARγ ligand activity of the fraction of peak 5 ([1]; 50 μg/mL and 100 μg/mL, FIG. 9) | PPARγ ligand activity of peak fractions ([1]; final concentration 100 μg/mL, FIG. 7) | PPARγ ligand activity, ratio (%) of the activity of each synthesized product to the activity of the control substance (DMSO) ([1]; test sample concentration 10 μg/mL, incubation 48 hours, * = twice or more vs control, p<0.05) | PPARγ ligand activity, ratio (%) of the activity of each synthesized product to the activity of the control substance (DMSO) ([1]; test sample concentration 20 μg/mL, incubation 48 hours, * = twice or more vs control, p<0.05) | deposition of fat droplets in the hepatocytes ([3]; 0.037 μg/kg/day) | deposition of fat droplets in the hepatocytes ([3]; 10 mg/kg/day) | swelling of hepatocytes ([3]; 10 mg/kg/day) |
| --- | --- | --- | --- | --- | --- | --- | --- | --- | --- | --- | --- | --- | --- | --- | --- | --- |
| Cc1ccc(C2=CC(=O)OC2O)cc1 (stereo not drawn) | high activity in a low concentration range; also recorded: highest activity | 170% | 110% | 120% | 180% | 260* % | 560* % | 710* % |  |  |  |  |  |  |  |  |
| O=C1C=C(c2ccccc2)C(O)O1 (single isomer, unassigned) [5H4PB, 5-hydroxy-4-phenylbutenolide] |  |  |  |  |  |  |  |  | effect of elevating the expression level of UCP-1 | elevate in a concentration-dependent manner | distinct PPARγ ligand activity |  |  |  |  |  |
| O=C1C=C(Cc2ccccc2)C(O)O1 (stereo not drawn) [Benzyl, 5-hydroxy-4-benzylbutenolide] |  | 120% | 220% | 110% | 130% | 170% | 310* % | 360* % |  |  |  |  |  |  |  |  |
| Cc1ccc(CC2=CC(=O)OC2O)cc1 (stereo not drawn) [Methylbenzyl, 5-hydroxy-4-(4-methylbenzyl)butenolide] |  | 130% | 110% | 120% | 130% | 140% | 130% | 240* % |  |  |  | 340* % | 520* % |  |  |  |
| CN(CCOc1ccc(CC2SC(=O)NC2=O)cc1)c1ccccn1 (stereo not drawn) [rosiglitazone, reference compound] |  |  |  |  |  |  |  |  |  |  |  |  |  | very mild to mild depositions | moderate deposition | mildly swollen |
